Source: ChEMBL document CHEMBL5608174, “Synthesis and biological evaluation of 4-phenyl-5-quinolinyl substituted isoxazole analogues as potent cytotoxic and tubulin polymerization inhibitors against ESCC” (Eur J Med Chem, 2024)
The source made the active and inactive calls. The calls are words filed in the database; no cut-off is given here.

Experiments:
KYSE-30 [1] = test: Induction of cell cycle arrest in human KYSE-30 cells assessed as accumulation of cells at G2/M phase at 10 nmol/L by PI staining based flow cytometric analysis; format: functional
KYSE-30 [2] = test: Induction of apoptosis in human KYSE-30 cells assessed as early apoptotic cells at 5 nmol/L incubated for 48 hrs by Annexin V-FITC/PI staining based flow cytometry analysis (reference value: 4.38 %); format: functional
KYSE-30 [3] = test: Induction of apoptosis in human KYSE-30 cells assessed as necrotic cells at 20 nmol/L incubated for 48 hrs by Annexin V-FITC/PI staining based flow cytometry analysis (reference value: 1.59 %); format: functional
[4] = Toxicity in female BALB/c-nu nude mouse xenografted with human KYSE-30 cells assessed as effect on serum ALT level at 6 to 12 mg/kg, ip administered for 15 days by biochemical analysis; format: organism-based; conditions: in vivo, 360 h, dose 6-12 mg/kg, time 15 day
[5] = Cytotoxicity against HUVEC cells assessed as inhibition of cell growth incubated for 48 hrs by MTT assay; format: toxicity, cell-based; conditions: human

## COc1ccc(-c2cnoc2-c2cc(C)nc3ccccc23)cc1
KYSE-30 [1]
  Activity: Active
KYSE-30 [2]
  Activity: 46.64%
KYSE-30 [3]
  Activity: 3.2%
[4]
  Activity: Non-Toxic
[5]
  IC50 at 48 h: > 710 nM
